Data published in patent publication US20250179103A1, “6-OXODECAHYDROPYRROLO[1,2-A][1,5]DIAZOCINE AND 6-OXODECAHYDRO-4H-PYRROLO[2,1-D][1,5]THIAZOCINE DERIVATIVES AS STAT3 AND STAT6 MODULATORS FOR THE TREATMENT OF CANCER AND INFLAMMATORY CONDITIONS” (Recludix Pharma, Inc., priority 2022, published 2025).
pIC50: −log10 of the molar value.

Tests used:
[1] = molecular target: T1, Recombinant STAT3 protein (STAT3(G127-I722)) (Homo sapiens, UniProt P40763); assay: STAT3 Fluorescence Polarization (FP) Assay; type: binding; settings: STAT3(G127-I722) 25 nM, probe 5-FAM-GpYLPQTV-NH2 2 nM, 45-minute incubation
T1 construct: Recombinant STAT3 protein (STAT3(G127-I722))
T1 sequence (P40763 127-722): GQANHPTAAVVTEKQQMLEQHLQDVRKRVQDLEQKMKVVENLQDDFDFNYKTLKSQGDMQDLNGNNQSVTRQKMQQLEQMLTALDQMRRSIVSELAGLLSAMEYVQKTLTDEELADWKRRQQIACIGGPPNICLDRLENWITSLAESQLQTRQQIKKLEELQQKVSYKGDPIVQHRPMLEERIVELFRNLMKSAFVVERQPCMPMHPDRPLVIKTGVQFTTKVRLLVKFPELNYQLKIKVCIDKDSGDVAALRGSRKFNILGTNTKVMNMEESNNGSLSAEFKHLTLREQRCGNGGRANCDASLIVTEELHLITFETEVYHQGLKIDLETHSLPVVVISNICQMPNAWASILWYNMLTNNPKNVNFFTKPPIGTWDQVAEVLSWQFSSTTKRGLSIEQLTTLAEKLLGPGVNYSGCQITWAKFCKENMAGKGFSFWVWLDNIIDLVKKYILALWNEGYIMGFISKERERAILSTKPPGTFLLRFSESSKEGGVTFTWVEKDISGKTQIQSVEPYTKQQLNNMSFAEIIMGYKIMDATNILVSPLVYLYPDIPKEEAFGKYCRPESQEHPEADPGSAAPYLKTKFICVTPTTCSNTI
Procedure, shortened: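 Fluorescence polarization after a 45-min room-temperature incubation measured compound displacement of a 2 nM fluorescein-labelled phosphotyrosine peptide (5-FAM-GpYLPQTV-NH2) from 25 nM recombinant STAT3(G127-I722). Buffer was 10 mM HEPES pH 7.4 with 1% DMSO final. IC50s were fitted by nonlinear regression of mP against log concentration.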

[2] = molecular target: T2, Recombinant STAT6 protein (STAT6(W123-T658)) (Homo sapiens, UniProt P42226); assay: STAT6 Fluorescence Polarization (FP) Assay; type: binding; settings: STAT6(W123-T658) 250 nM, probe 5-FAM-ApYKPFQDLI-NH2 2 nM, 45-minute incubation
T2 construct: Recombinant STAT6 protein (STAT6(W123-T658))
T2 sequence (P42226 123-658): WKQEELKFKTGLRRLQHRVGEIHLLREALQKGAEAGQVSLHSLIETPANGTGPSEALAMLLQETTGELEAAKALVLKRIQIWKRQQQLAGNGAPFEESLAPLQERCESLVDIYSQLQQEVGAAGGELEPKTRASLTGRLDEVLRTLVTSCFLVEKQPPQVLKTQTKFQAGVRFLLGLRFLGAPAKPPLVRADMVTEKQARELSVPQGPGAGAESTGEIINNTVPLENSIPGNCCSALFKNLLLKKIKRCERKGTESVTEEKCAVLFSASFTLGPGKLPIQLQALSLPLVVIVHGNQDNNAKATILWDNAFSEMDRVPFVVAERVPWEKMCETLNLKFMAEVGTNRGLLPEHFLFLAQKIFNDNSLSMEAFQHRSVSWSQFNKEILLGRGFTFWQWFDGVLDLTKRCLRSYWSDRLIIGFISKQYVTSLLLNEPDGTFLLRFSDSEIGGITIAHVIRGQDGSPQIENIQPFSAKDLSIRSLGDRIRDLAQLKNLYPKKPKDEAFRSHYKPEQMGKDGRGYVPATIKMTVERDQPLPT
Procedure, shortened: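 Displacement of a fluorescent phosphotyrosine peptide (5-FAM-ApYKPFQDLI-NH2, 2 nM) from STAT6(W123-T658) (250 nM), 1% DMSO, pH 7.4 HEPES buffer. After 45 min at room temperature, polarization (mP) was plotted versus log compound concentration and fitted by nonlinear regression to give IC50.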

Row | SMILES | pIC50 [1] | pIC50 [2]
1 | CC(=O)N1CC[C@H]2CC[C@@H](C(=O)Nc3ccc(OCCN(C)C)cc3)N2C(=O)[C@@H](NC(=O)c2cc3cc(C(F)(F)P(=O)(O)O)ccc3s2)C1 [Compound 75, ((2-(((5S,8S,10aR)-3-acetyl-8-((4-(2-(dimethylamino)ethoxy)phenyl)carbamoyl)-6-oxodecahydropyrrolo[1,2-a][1,5]diazocin-5-yl)carbamoyl)benzo[b]thiophen-5-yl)difluoromethyl)phosphonic acid] | 5.00 to 6.00 | 4.52 to 5.52
2 | CC(=O)N1CC[C@H]2CC[C@@H](C(=O)N3CCC4(C3)C(=O)Nc3ccccc34)N2C(=O)[C@@H](NC(=O)c2cc3cc(C(F)(F)P(=O)(O)O)ccc3s2)C1 (stereo partly drawn) [Compound 76, ((2-(((5S,8S,10aR)-3-acetyl-6-oxo-8-(2-oxospiro[indoline-3,3′-pyrrolidine]-1′-carbonyl)decahydropyrrolo[1,2-a][1,5]diazocin-5-yl)carbamoyl)benzo[b]thiophen-5-yl)difluoromethyl)phosphonic acid] | 6.00 to 7.00 | 5.52 to 6.52
3 | CC(=O)N1CC[C@H]2CC[C@@H](C(=O)N3Cc4cnn(-c5ccccc5)c4C3)N2C(=O)[C@@H](NC(=O)c2cc3cc(C(F)(F)P(=O)(O)O)ccc3s2)C1 [Compound 86, ((2-(((5S,8S,10aR)-3-acetyl-6-oxo-8-(1-phenyl-1,4,5,6-tetrahydropyrrolo[3,4-c]pyrazole-5-carbonyl)decahydropyrrolo[1,2-a][1,5]diazocin-5-yl)carbamoyl)benzo[b]thiophen-5-yl)difluoromethyl)phosphonic acid] | ≥ 7.00 | 5.52 to 6.52
4 | CC(=O)N1CC[C@H]2CC[C@@H](C(=O)N3Cc4cnn(-c5ncccn5)c4C3)N2C(=O)[C@@H](NC(=O)c2cc3cc(C(F)(F)P(=O)(O)O)ccc3s2)C1 [Compound 87, ((2-(((5S,8S,10aR)-3-acetyl-6-oxo-8-(1-(pyrimidin-2-yl)-1,4,5,6-tetrahydropyrrolo[3,4-c]pyrazole-5-carbonyl)decahydropyrrolo[1,2-a][1,5]diazocin-5-yl)carbamoyl)benzo[b]thiophen-5-yl)difluoromethyl)phosphonic acid] | 5.00 to 6.00 | 5.52 to 6.52
5 | CC(=O)N1CC[C@H]2CC[C@@H](C(=O)N3CC(C#N)(c4ccccn4)C3)N2C(=O)[C@@H](NC(=O)c2cc3cc(C(F)(F)P(=O)(O)O)ccc3s2)C1 [Compound 88, ((2-(((5S,8S,10aR)-3-acetyl-8-(3-cyano-3-(pyridin-2-yl)azetidine-1-carbonyl)-6-oxodecahydropyrrolo[1,2-a][1,5]diazocin-5-yl)carbamoyl)benzo[b]thiophen-5-yl)difluoromethyl)phosphonic acid] | ≥ 7.00 | 5.52 to 6.52
6 | CC(=O)N1CC[C@H]2CC[C@@H](C(=O)N(C)CC(C)C#N)N2C(=O)[C@@H](NC(=O)c2cc3cc(C(F)(F)P(=O)(O)O)ccc3s2)C1 (stereo partly drawn) [Compound 89, ((2-(((5S,8S,10aR)-3-acetyl-8-((2-cyanopropyl)(methyl)carbamoyl)-6-oxodecahydropyrrolo[1,2-a][1,5]diazocin-5-yl)carbamoyl)benzo[b]thiophen-5-yl)difluoromethyl)phosphonic acid] | 5.00 to 6.00 | 5.52 to 6.52
7 | CC(=O)N1CC[C@H]2CC[C@@H](C(=O)N(C)CCC#N)N2C(=O)[C@@H](NC(=O)c2cc3cc(C(F)(F)P(=O)(O)O)ccc3s2)C1 [Compound 90, ((2-(((5S,8S,10aR)-3-acetyl-8-((2-cyanoethyl)(methyl)carbamoyl)-6-oxodecahydropyrrolo[1,2-a][1,5]diazocin-5-yl)carbamoyl)benzo[b]thiophen-5-yl)difluoromethyl)phosphonic acid] | 5.00 to 6.00 | 5.52 to 6.52

Results, then the compound that gave them:

Row | pIC50 [1] | pIC50 [2] | SMILES
8 | 6.00 to 7.00 | 4.52 to 5.52 | CC(=O)N1CC[C@H]2CC[C@@H](C(=O)N3CC(C(=O)N4CCOCC4)C3)N2C(=O)[C@@H](NC(=O)c2cc3cc(C(F)(F)P(=O)(O)O)ccc3s2)C1 [Compound 77, ((2-(((5S,8S,10aR)-3-acetyl-8-(3-(morpholine-4-carbonyl)azetidine-1-carbonyl)-6-oxodecahydropyrrolo[1,2-a][1,5]diazocin-5-yl)carbamoyl)benzo[b]thiophen-5-yl)difluoromethyl)phosphonic acid]
9 | 6.00 to 7.00 | 5.52 to 6.52 | CC(=O)N1CC[C@H]2CC[C@@H](C(=O)N3CCC(N4CCCS4(=O)=O)C3)N2C(=O)[C@@H](NC(=O)c2cc3cc(C(F)(F)P(=O)(O)O)ccc3s2)C1 (stereo partly drawn) [Compound 78, ((2-(((5S,8S,10aR)-3-acetyl-8-(3-(1,1-dioxidoisothiazolidin-2-yl)pyrrolidine-1-carbonyl)-6-oxodecahydropyrrolo[1,2-a][1,5]diazocin-5-yl)carbamoyl)benzo[b]thiophen-5-yl)difluoromethyl)phosphonic acid]
10 | 6.00 to 7.00 | 5.52 to 6.52 | CC(=O)N1CC[C@H]2CC[C@@H](C(=O)N3C[C@@H]4[C@H](C3)[C@H]3CS(=O)(=O)C[C@@H]43)N2C(=O)[C@@H](NC(=O)c2cc3cc(C(F)(F)P(=O)(O)O)ccc3s2)C1 [Compound 79, ((2-(((5S,8S,10aR)-3-acetyl-8-((3aR,3bS,6aR,6bS)-2,2-dioxidooctahydro-1H-thieno[3′,4′:3,4]cyclobuta[1,2-c]pyrrole-5-carbonyl)-6-oxodecahydropyrrolo[1,2-a][1,5]diazocin-5-yl)carbamoyl)benzo[b]thiophen-5-yl)difluoromethyl)phosphonic acid]
11 | 6.00 to 7.00 | 5.52 to 6.52 | CC(=O)N1CC[C@H]2CC[C@@H](C(=O)N3CC4CCS(=O)(=O)CC4C3)N2C(=O)[C@@H](NC(=O)c2cc3cc(C(F)(F)P(=O)(O)O)ccc3s2)C1 (stereo partly drawn) [Compound 80, ((2-(((5S,8S,10aR)-3-acetyl-8-(5,5-dioxidooctahydrothiopyrano[3,4-c]pyrrole-2-carbonyl)-6-oxodecahydropyrrolo[1,2-a][1,5]diazocin-5-yl)carbamoyl)benzo[b]thiophen-5-yl)difluoromethyl)phosphonic acid]
12 | 6.00 to 7.00 | 5.52 to 6.52 | CC(=O)N1CC[C@H]2CC[C@@H](C(=O)N3CCC(c4cnc5n4CCCC5)C3)N2C(=O)[C@@H](NC(=O)c2cc3cc(C(F)(F)P(=O)(O)O)ccc3s2)C1 (stereo partly drawn) [Compound 81, ((2-(((5S,8S,10aR)-3-acetyl-6-oxo-8-(3-(5,6,7,8-tetrahydroimidazo[1,2-a]pyridin-3-yl)pyrrolidine-1-carbonyl)decahydropyrrolo[1,2-a][1,5]diazocin-5-yl)carbamoyl)benzo[b]thiophen-5-yl)difluoromethyl)phosphonic acid]
13 | 5.00 to 6.00 | 5.52 to 6.52 | CC(=O)N1CC[C@H]2CC[C@@H](C(=O)N3CCC(OCc4cncs4)C3)N2C(=O)[C@@H](NC(=O)c2cc3cc(C(F)(F)P(=O)(O)O)ccc3s2)C1 (stereo partly drawn) [Compound 82, ((2-(((5S,8S,10aR)-3-acetyl-6-oxo-8-(3-(thiazol-5-ylmethoxy)pyrrolidine-1-carbonyl)decahydropyrrolo[1,2-a][1,5]diazocin-5-yl)carbamoyl)benzo[b]thiophen-5-yl)difluoromethyl)phosphonic acid]
14 | 5.00 to 6.00 | 4.52 to 5.52 | COC1CCN(C2CCN(C(=O)[C@@H]3CC[C@@H]4CCN(C(C)=O)C[C@H](NC(=O)c5cc6cc(C(F)(F)P(=O)(O)O)ccc6s5)C(=O)N43)C2)CC1 (stereo partly drawn) [Compound 83, ((2-(((5S,8S,10aR)-3-acetyl-8-(3-(4-methoxypiperidin-1-yl)pyrrolidine-1-carbonyl)-6-oxodecahydropyrrolo[1,2-a][1,5]diazocin-5-yl)carbamoyl)benzo[b]thiophen-5-yl)difluoromethyl)phosphonic acid]
15 | 6.00 to 7.00 | 5.52 to 6.52 | CC(=O)Nc1ccn(C2CCN(C(=O)[C@@H]3CC[C@@H]4CCN(C(C)=O)C[C@H](NC(=O)c5cc6cc(C(F)(F)P(=O)(O)O)ccc6s5)C(=O)N43)C2)n1 (stereo partly drawn) [Compound 84, ((2-(((5S,8S,10aR)-8-(3-(3-acetamido-1H-pyrazol-1-yl)pyrrolidine-1-carbonyl)-3-acetyl-6-oxodecahydropyrrolo[1,2-a][1,5]diazocin-5-yl)carbamoyl)benzo[b]thiophen-5-yl)difluoromethyl)phosphonic acid]
16 | 5.00 to 6.00 | 5.52 to 6.52 | CC(=O)N1CC[C@H]2CC[C@@H](C(=O)N3CCC(N(Cc4noc(C5CC5)n4)C(C)=O)C3)N2C(=O)[C@@H](NC(=O)c2cc3cc(C(F)(F)P(=O)(O)O)ccc3s2)C1 (stereo partly drawn) [Compound 85, ((2-(((5S,8S,10aR)-3-acetyl-8-(3-(N-((5-cyclopropyl-1,2,4-oxadiazol-3-yl)methyl)acetamido)pyrrolidine-1-carbonyl)-6-oxodecahydropyrrolo[1,2-a][1,5]diazocin-5-yl)carbamoyl)benzo[b]thiophen-5-yl)difluoromethyl)phosphonic acid]
